# Columns and labels:
# human CB1 receptors = target: T1, human CB1 receptors (Homo sapiens, UniProt P21554); assay: [3H]-CP-55,940 competition binding, CHO cell membranes transfected with human CB1 receptors
# T1 construct: host or cells: CHO cells
# Experimental: To obtain membranes, cells were washed with phosphate-buffered saline (PBS) and scraped off with ice-cold hypotonic buffer (5 mM Tris HCl, 2 mM EDTA, pH 7.4). The cell suspension was homogenized with a Polytron and then centrifuged for 30 min at 40,000× g. The membrane pellet was suspended in 50 mM Tris HCl buffer (pH 7.4) containing 2.5 mM ethylenediaminetetraacetic acid (EDTA), 5 mM MgCl2, and 0.5 mg/mL bovine serum albumin (BSA) for CB1 receptors or in 50 mM Tris HCl (pH 7.4), 1 mM EDTA, 5 mM MgCl2, and 0.5% BSA for CB2 receptors.
# For human cannabinoid receptors, membranes obtained from CHO cells transfected with human CB1 or CB2 receptors (2 µg protein/100 µL) were used. Competition binding experiments at murine cannabinoid receptors were performed with mouse brain membranes (40 µg protein/100 µL) or with mouse spleen membranes (80 µg protein/100 µL) for CB1 receptors or CB2 receptors, respectively. […] Bound and free radioactivity were separated by filtering the assay mixture through Whatman GF/C glass fiber filters using a Brandel cell harvester (Brandel Instruments, Unterföhring, Germany).
# The protein concentration was determined according to a Bio-Rad method with bovine serum albumin as a reference standard. Inhibitory binding constants, Ki, were calculated from the IC50 values according to the Cheng and Prusoff equation:Ki = IC50/(1 + [C*]/KD*) where [C*] is the concentration of the radioligand and KD* its dissociation constant. Functional experiments were analyzed by non-linear regression analysis using the equation for a sigmoid concentration–response curve (GraphPad Prism, San Diego, CA, USA). All the data are expressed as the mean ± SEM of three independent experiments.
# [1] = Plasma (and brain) levels of JWH-175 and JWH-018 in mice by LC-MS/MS; type: in vivo, mouse; conditions: for presence in the brain tissue of mice systemically treated with JWH-175: data not shown
# Experimental: For the in vivo studies, three different groups of mice were selected. […] Urine specimens were collected from mice individually placed inside metabolic cages (Ugo Basile SRL, Gemonio (VA), Italy) with free access to water and food. The same dose of JWH-175 was administered to the second group, and behavioral tests were performed before the blood collection. Tests and sampling were carried out, at 0, 30, 60, and 300 min, on a sub-group of six mice at each time interval. The same behavioral studies and blood sampling were performed on the third group, to which JWH-018 (10 mg/kg) was injected. Blood samples (mean total volume: 500 μL) were collected by submandibular blood collection technique into 1 mL vials containing EDTA (4 mg/mL of blood) as preservative and anticoagulant. After each blood withdrawal, an equal volume of saline solution was subcutaneously injected into mice to maintain volume and osmotic homeostasis. Plasma from collected blood and urine samples were stocked at −20 °C until the analysis.
# For blood metabolic profile, samples were centrifugated at 9000× g rpm for 8 min to obtain plasma. Then, 200 µL of the supernatant was added to 500 μL of acetonitrile and centrifugated at 13,000× g rpm for 3 min. The aqueous layer was then collected and added to 50 μL of internal standard solution (10 μg/mL) and 500 μL of phosphate buffer (0.8 M, pH 7.4). Samples were then incubated for 1 h at 55 °C. After hydrolysis, samples were extracted with 5 mL of ethyl acetate. The organic solvent was then dried under nitrogen flow at 40 °C, and the dry residue was resolved in 50 μL of mobile phase and an aliquot of 10 µL was injected into the LC-MS systems.
# Samples were analyzed using an Agilent 1200 series high-performance liquid chromatography (HPLC) instrument equipped with a SUPELCO C18 column (15 cm × 2.1 mm × 5 µm) coupled with a Sciex 5500QTRAP triple quadrupole mass spectrometer (Sciex, Milan, Italy) with an ESI source operated in positive ionization mode. Analyses were carried out at a constant flow rate of 250 µL/min using ultra-purified water, 0.1% formic acid (A), and acetonitrile 0.1% formic acid (B) as mobile phase. The gradient started at 5% eluent B, was increased to 65% eluent B in 7 min and after 4 min to 95% eluent B in 2 min, held for 4.5 min, decreased to starting conditions of 5% eluent B in 0.31 min, and held for 2 min for re-equilibration
# Multiple reaction monitoring (MRM) was used as the acquisition mode (see Table 3). The MRM method was optimized starting from the protocol employed in our laboratory.
# [2] = test system: fEPSP of CA1 area of mouse hippocampal slice; assay: Electrophysiological recording of fEPSP in hippocampal slices; type: cell-based; conditions: for fEPSP slope, % changes compared to control condition: steady state
# Experimental: Procedures for tissue preparation are the same as those described by Ossato et al., 2016 [45]. In brief, after mouse decapitation, the head was immediately chilled in refrigerated artificial cerebrospinal fluid (aCSF, 0 °C) of the following composition (in mM): NaCl, 126; KCl, 2; KH2PO4, 1.25; NaHCO3, 26; MgSO4, 2.0; CaCl2, 2.5; d-glucose, 10. After 1 min, the brain was extracted to isolate the hippocampus and then placed in ice-cold artificial cerebrospinal fluid (aCSF). All solutions were saturated with 95% O2/5% CO2. Transverse hippocampal slices (425 μm thick) were cut with a tissue chopper and then placed for almost 90 min in a Haas-style incubation chamber for recovery before recording.
# A single slice was transferred into a submerged-type recording chamber (3 mL total volume) and continuously superfused (3.0 mL/min) with warmed (32–33 °C) aCSF. WINLTP 2.10 computer software was used for stimulus triggering, PC recording, and analysis. Synaptic responses of CA1 pyramidal neurons were elicited by electrical stimulation of the Schaffer collateral/commissural pathway. Single stimulation pulses (80 µs duration; 0.05 Hz) were delivered by mean of a concentric bipolar electrode (o.d. 125 μm, FHC, USA) connected to a Grass S11 stimulator driving a PSIU6 constant current stimulus isolation unit. To record the fEPSPs, borosilicate glass electrodes fabricated using a microelectrode puller (P97, Sutter Instruments) and filled with aCSF (1.5 ± 0.5 MΩ), inserted in the distal third of the stratum radiatum and 200–300 µm away from stimulating electrodes, were used. The maximal fEPSPs response was reached by adjusting the recording electrode depth. Recorded potentials were amplified (Axoprobe 1A DC-coupled—Cyberamp 320, Molecular Devices, Sunnyvale, CA, USA) and filtered (5.0 kHz) prior to A/D conversion. Upon 10 min of stable synaptic response, a stimulus–response curve (SRC) was generated as previously described to extrapolate a stimulation intensity evoking 70% of maximal fEPSP, to be used throughout the experiment. […] To investigate whether the vehicle had any effect on synaptic activity, the superfusion inlet was switched to a reservoir containing aCSF plus the amount of vehicle present for the corresponding drug concentration (sham application), before switching to the solution also including the drug, for comparison. All reservoirs and tubing were on glass or Teflon to avoid the capturing of cannabinoids by plastic or silicon parts.
# We analyzed data from in vitro recordings as previously described. […] Effect of treatment was considered steady state when stable +/− 5% for 10 min.
# T1 sequence (P21554 whole entry): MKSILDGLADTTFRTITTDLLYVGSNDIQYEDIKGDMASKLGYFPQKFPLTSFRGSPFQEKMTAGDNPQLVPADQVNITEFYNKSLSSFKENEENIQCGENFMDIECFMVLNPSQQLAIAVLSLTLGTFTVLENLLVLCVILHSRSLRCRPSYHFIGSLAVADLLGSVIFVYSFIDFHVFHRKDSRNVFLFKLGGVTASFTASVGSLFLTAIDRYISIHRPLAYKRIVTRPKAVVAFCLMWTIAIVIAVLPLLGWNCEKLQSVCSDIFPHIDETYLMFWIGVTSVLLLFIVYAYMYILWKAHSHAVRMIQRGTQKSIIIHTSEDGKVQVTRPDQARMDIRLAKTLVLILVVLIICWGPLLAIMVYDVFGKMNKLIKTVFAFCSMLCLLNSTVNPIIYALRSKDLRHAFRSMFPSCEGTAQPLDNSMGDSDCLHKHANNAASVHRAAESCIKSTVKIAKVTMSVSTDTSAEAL
Compound,Ki (human CB1 receptors),"time after administration within which JWH-175 itself was detected in plasma ([1]; JWH-175 10 mg/kg i.p., mouse plasma)",presence in the brain tissue of mice systemically treated with JWH-175 [1],"fEPSP slope, % changes compared to control condition ([2]; 1 µM, last 3 min of recording)",effect on fEPSP ([2]; 0.01−0.3 µM),"times less potent than JWH-018 in inhibiting fEPSP ([2]; CA1 hippocampal slices, 0.01–1 µM)",selectivity index (ratio between the Ki value to human CB2 and the Ki value to human CB1) (human CB1 receptors; human CB2 / human CB1),"fold higher affinity than JWH-175 at human CB1 receptors (human CB1 receptors; ratio of Ki values, CHO cell membranes)","time of peak plasmatic concentration of JWH-018 ([1]; JWH-018 10 mg/kg i.p., mouse plasma)","fEPSP slope, % changes compared to control condition ([2]; 0.1 µM)","fEPSP slope, % changes compared to control condition ([2]; 0.3 µM)"
"CCCCCn1cc(Cc2cccc3ccccc23)c2ccccc21 [JWH-175, 3-(1-naphthalenylmethyl)-1-pentyl-1H-indole]",0.0258 ± 0.0019 µM,≤ 30 min,only traces,−23.7 ± 5.7%,failed to affect fEPSP,about 10 times,,,,,
"CCCCCn1cc(C(=O)c2cccc3ccccc23)c2ccccc21 [JWH-018, 1-naphthalenyl(1-pentyl-1H-indol-3-yl)-methanone]",,,presence,−48.8 ± 7.6%,,,0.9,2.71 fold,30 min,−34.7 ± 7.9%,−40.4 ± 8.4%

# — publication PMC9318133 (International Journal of Molecular Sciences, 2022)
